Reference: PubChem BioAssay AID1259407 (Chemical Carcinogenesis Research Information System (CCRIS), 2018)
The source made the active and inactive calls. No rule for the calls is given here.

System: CCRIS mutagenicity, Ames/micronucleus/aberration tests
Assay: CCRIS mutagenicity studies
[1] = Test System: AMES SALMONELLA TYPHIMURIUM, Strain/Indicator: TA98, Metabolic Activation: NONE, Method: STANDARD PLATE
[2] = Test System: AMES SALMONELLA TYPHIMURIUM, Strain/Indicator: TA100, Metabolic Activation: NONE, Method: STANDARD PLATE
[3] = Test System: AMES SALMONELLA TYPHIMURIUM, Strain/Indicator: TA1535, Metabolic Activation: NONE, Method: STANDARD PLATE
[4] = Test System: AMES SALMONELLA TYPHIMURIUM, Strain/Indicator: TA1537, Metabolic Activation: NONE, Method: STANDARD PLATE
[5] = Test System: MOUSE LYMPHOMA, Strain/Indicator: L5178Y (TK+/TK-), Metabolic Activation: RAT, LIVER, S-9, AROCLOR 1254, Method: SUSPENSION/PLATE
[6] = Test System: Mouse lymphoma, Strain/Indicator: L5178Y (tk+/tk-), Metabolic Activation: None, Method: Suspension/plate

Structure (SMILES): O=S(=O)(c1ccc(O)cc1)c1ccc(O)cc1
- mutagenic call (Test System: AMES SALMONELLA TYPHIMURIUM, Strain/Indicator: TA98, Metabolic Activation: HAMSTER, LIVER, S-9, AROCLOR 1254 (10%), Method: STANDARD PLATE): inactive; negative
- mutagenic call (Test System: AMES SALMONELLA TYPHIMURIUM, Strain/Indicator: TA98, Metabolic Activation: NONE, Method: PREINCUBATION): inactive; negative
- mutagenic call [1]: inactive; negative
- mutagenic call (Test System: AMES SALMONELLA TYPHIMURIUM, Strain/Indicator: TA98, Metabolic Activation: RAT LIVER S-9, PHENOBARBITAL AND BETA-NAPHTHOFLAVONE, Method: PREINCUBATION): inactive; negative
- mutagenic call (Test System: AMES SALMONELLA TYPHIMURIUM, Strain/Indicator: TA98, Metabolic Activation: RAT, LIVER, S-9, AROCLOR 1254 (10%), Method: STANDARD PLATE): inactive; negative
- mutagenic call (Test System: AMES SALMONELLA TYPHIMURIUM, Strain/Indicator: TA100, Metabolic Activation: HAMSTER, LIVER, S-9, AROCLOR 1254 (10%), Method: STANDARD PLATE): inactive; negative
- mutagenic call (Test System: AMES SALMONELLA TYPHIMURIUM, Strain/Indicator: TA100, Metabolic Activation: NONE, Method: PREINCUBATION): inactive; negative
- mutagenic call [2]: inactive; negative
- mutagenic call (Test System: AMES SALMONELLA TYPHIMURIUM, Strain/Indicator: TA100, Metabolic Activation: RAT LIVER S-9, PHENOBARBITAL AND BETA-NAPHTHOFLAVONE, Method: PREINCUBATION): inactive; negative
- mutagenic call (Test System: AMES SALMONELLA TYPHIMURIUM, Strain/Indicator: TA100, Metabolic Activation: RAT, LIVER, S-9, AROCLOR 1254 (10%), Method: STANDARD PLATE): inactive; negative
- mutagenic call (Test System: AMES SALMONELLA TYPHIMURIUM, Strain/Indicator: TA1535, Metabolic Activation: HAMSTER, LIVER, S-9, AROCLOR 1254 (10%), Method: STANDARD PLATE): inactive; negative
- mutagenic call (Test System: AMES SALMONELLA TYPHIMURIUM, Strain/Indicator: TA1535, Metabolic Activation: NONE, Method: PREINCUBATION): inactive; negative
- mutagenic call [3]: inactive; negative
- mutagenic call (Test System: AMES SALMONELLA TYPHIMURIUM, Strain/Indicator: TA1535, Metabolic Activation: RAT LIVER S-9, PHENOBARBITAL AND BETA-NAPHTHOFLAVONE, Method: PREINCUBATION): inactive; negative
- mutagenic call (Test System: AMES SALMONELLA TYPHIMURIUM, Strain/Indicator: TA1535, Metabolic Activation: RAT, LIVER, S-9, AROCLOR 1254 (10%), Method: STANDARD PLATE): inactive; negative
- mutagenic call (Test System: AMES SALMONELLA TYPHIMURIUM, Strain/Indicator: TA1537, Metabolic Activation: HAMSTER, LIVER, S-9, AROCLOR 1254 (10%), Method: STANDARD PLATE): inactive; negative
- mutagenic call (Test System: AMES SALMONELLA TYPHIMURIUM, Strain/Indicator: TA1537, Metabolic Activation: NONE, Method: PREINCUBATION): inactive; negative
- mutagenic call [4]: inactive; negative
- mutagenic call (Test System: AMES SALMONELLA TYPHIMURIUM, Strain/Indicator: TA1537, Metabolic Activation: RAT LIVER S-9, PHENOBARBITAL AND BETA-NAPHTHOFLAVONE, Method: PREINCUBATION): inactive; negative
- mutagenic call (Test System: AMES SALMONELLA TYPHIMURIUM, Strain/Indicator: TA1537, Metabolic Activation: RAT, LIVER, S-9, AROCLOR 1254 (10%), Method: STANDARD PLATE): inactive; negative
- mutagenic call (Test System: AMES SALMONELLA TYPHIMURIUM, Strain/Indicator: TA1538, Metabolic Activation: HAMSTER, LIVER, S-9, AROCLOR 1254 (10%), Method: STANDARD PLATE): inactive; negative
- mutagenic call (Test System: AMES SALMONELLA TYPHIMURIUM, Strain/Indicator: TA1538, Metabolic Activation: NONE, Method: STANDARD PLATE): inactive; negative
- mutagenic call (Test System: AMES SALMONELLA TYPHIMURIUM, Strain/Indicator: TA1538, Metabolic Activation: RAT, LIVER, S-9, AROCLOR 1254 (10%), Method: STANDARD PLATE): inactive; negative
- mutagenic call (Test System: E. COLI, Strain/Indicator: WP2UVRA, Metabolic Activation: NONE, Method: PREINCUBATION): inactive; negative
- mutagenic call (Test System: E. COLI, Strain/Indicator: WP2UVRA, Metabolic Activation: RAT LIVER S-9, PHENOBARBITAL AND BETA-NAPHTHOFLAVONE, Method: PREINCUBATION): inactive; negative
- mutagenic call (Test System: MOUSE LYMPHOMA, Strain/Indicator: L5178Y (TK+/TK-), Metabolic Activation: NONE, Method: SUSPENSION/PLATE): inactive; positive. reevaluation of results: negative
- mutagenic call [5]: inactive; negative

Structure (SMILES): C[C@H]1[C@H](O)CCC2=CC(=O)[C@]3([C@@]4(CO)CO4)O[C@@H]3[C@@]21C
- mutagenic call [2]: active; positive
- mutagenic call (Test System: E. COLI, Strain/Indicator: WP2 UVRA, Metabolic Activation: NONE, Method: STANDARD PLATE): active; positive

Structure (SMILES): O=C(/C=C/c1ccccc1)OC/C=C/c1ccccc1
- mutagenic call (Test System: AMES SALMONELLA TYPHIMURIUM, Strain/Indicator: TA1538, Metabolic Activation: NONE, Method: PREINCUBATION): active; positive
- mutagenic call [6]: active; inconclusive (previous evaluation positive)
- mutagenic call (Test System: Mouse lymphoma, Strain/Indicator: L5178Y (tk+/tk-), Metabolic Activation: Rat, Liver, S-9, Aroclor 1254, Method: Suspension/plate): active; positive

Structure (SMILES): CC(=O)Nc1snc2c(Cl)cc(Cl)cc12
- mutagenic call [1]: inactive; negative
- mutagenic call (Test System: AMES SALMONELLA TYPHIMURIUM, Strain/Indicator: TA98, Metabolic Activation: S-9, Method: STANDARD PLATE): inactive; negative
- mutagenic call [2]: inactive; negative
- mutagenic call (Test System: AMES SALMONELLA TYPHIMURIUM, Strain/Indicator: TA100, Metabolic Activation: S-9, Method: STANDARD PLATE): inactive; negative
- mutagenic call [3]: inactive; negative
- mutagenic call (Test System: AMES SALMONELLA TYPHIMURIUM, Strain/Indicator: TA1535, Metabolic Activation: S-9, Method: STANDARD PLATE): inactive; negative
- mutagenic call [4]: inactive; negative
- mutagenic call (Test System: AMES SALMONELLA TYPHIMURIUM, Strain/Indicator: TA1537, Metabolic Activation: S-9, Method: STANDARD PLATE): inactive; negative

Structure (SMILES): O=C(/C=N/O)Nc1ccccc1
- mutagenic call (Test System: AMES SALMONELLA TYPHIMURIUM, Strain/Indicator: TA98, Metabolic Activation: HAMSTER, LIVER, S-9, AROCLOR 1254, Method: STANDARD PLATE): inactive; negative
- mutagenic call [1]: inactive; negative
- mutagenic call (Test System: AMES SALMONELLA TYPHIMURIUM, Strain/Indicator: TA98, Metabolic Activation: RAT, LIVER, S-9, AROCLOR 1254, Method: STANDARD PLATE): inactive; negative
- mutagenic call (Test System: AMES SALMONELLA TYPHIMURIUM, Strain/Indicator: TA100, Metabolic Activation: HAMSTER, LIVER, S-9, AROCLOR 1254, Method: STANDARD PLATE): inactive; negative
- mutagenic call [2]: inactive; negative
- mutagenic call (Test System: AMES SALMONELLA TYPHIMURIUM, Strain/Indicator: TA100, Metabolic Activation: RAT, LIVER, S-9, AROCLOR 1254, Method: STANDARD PLATE): inactive; negative
- mutagenic call (Test System: AMES SALMONELLA TYPHIMURIUM, Strain/Indicator: TA1535, Metabolic Activation: HAMSTER, LIVER, S-9, AROCLOR 1254, Method: STANDARD PLATE): inactive; negative
- mutagenic call [3]: inactive; negative
- mutagenic call (Test System: AMES SALMONELLA TYPHIMURIUM, Strain/Indicator: TA1535, Metabolic Activation: RAT, LIVER, S-9, AROCLOR 1254, Method: STANDARD PLATE): inactive; negative
- mutagenic call (Test System: AMES SALMONELLA TYPHIMURIUM, Strain/Indicator: TA1537, Metabolic Activation: HAMSTER, LIVER, S-9, AROCLOR 1254, Method: STANDARD PLATE): inactive; negative
- mutagenic call [4]: inactive; negative
- mutagenic call (Test System: AMES SALMONELLA TYPHIMURIUM, Strain/Indicator: TA1537, Metabolic Activation: RAT, LIVER, S-9, AROCLOR 1254, Method: STANDARD PLATE): inactive; negative
- mutagenic call [5]: inactive; negative. reevaluation of results: negative
- mutagenic call [6]: active; equivocal (previous evaluation: positive)
